Assay [1] has as its system Mycobacterium tuberculosis. As to the kind of experiment: Antimycobacterial activity against Mycobacterium tuberculosis expressing GFP. The assay is classed as functional.
The subject of assay [2] is Mycobacterium tuberculosis. Nature of the assay: Antimycobacterial activity against Mycobacterium tuberculosis H37Rv by MABA assay. The assay is classed as functional.
Assay [3] concerns Mycobacterium tuberculosis. As to the kind of experiment: Antimycobacterial activity against drug-sensitive Mycobacterium tuberculosis. Format: functional.
Assay [4] concerns Mycobacterium tuberculosis. Nature of the assay: Antimycobacterial activity against Mycobacterium tuberculosis. Format: functional.
In assay [5] the test system is Mycobacterium tuberculosis. As to the kind of experiment: Antimycobacterial activity against Mycobacterium tuberculosis H37Rv by microplate alamar blue assay. Format: functional. On the technique in general: The colour change of resazurin is a common sign of viable cells or microbes.
Assay [6] concerns Mycobacterium tuberculosis. Nature of the assay: Antimycobacterial activity against Mycobacterium tuberculosis H37Rv by agar dilution method. The assay is classed as functional. For orientation: In agar dilution the substance is mixed into plates at graded concentrations.
Assay [7] relates to Mycobacterium tuberculosis. As to the kind of experiment: Antimycobacterial activity against drug-susceptible Mycobacterium tuberculosis H37Rv. Format: functional.
Assay [8] relates to Mycobacterium tuberculosis. Nature of the assay: Antimycobacterial activity against Mycobacterium tuberculosis infected in mouse. Format: functional.
The nature of assay [9]: Inhibition of mammalian mitochondrial protein synthesis. Format: mitochondria, Mitochondria.
The test system of assay [10] is Mycobacterium tuberculosis. Nature of the assay: Antimycobacterial activity against non-replicating Mycobacterium tuberculosis H37Rv by time kill kinetic assay. Format: functional.

≈ marks a conversion by molar mass, not a printed value.

In assay [1], `COCCNC(=O)c1cn(Cc2ccc(F)cc2)c2ccc([N+](=O)[O-])cc2c1=O` showed an MIC of under 0.244 µM. `Cc1c(C(=O)OCc2ccccc2)[n+]([O-])c2cc(F)c(-n3cncn3)cc2[n+]1[O-]` showed an MIC in [2] of at most 0.25 µg/mL. Turning to `CCNC(=O)Nc1nc2nc(-c3cnc(C(C)(C)O)nc3)c(F)c([C@H]3CCCO3)c2[nH]1`, the MIC in [3] was 0.03 µg/mL (≈ 0.0699 µM).

In the case of `Cc1cc(/C=C/c2ccc3cc(N(C)C)ccc3[n+]2C)c(C)n1-c1ccccc1.Cc1cc(/C=C/c2ccc3cc(N(C)C)ccc3[n+]2C)c(C)n1-c1ccccc1.O=C(O)c1cc2ccccc2c(Cc2c(O)c(C(=O)O)cc3ccccc23)c1O`, in assay [3], the MIC99 was 1.55 µg/mL. With `O[C@@H](c1cc(C(F)(F)F)nc2c(C(F)(F)F)cccc12)[C@H]1CCCCN1` [(S,R)-MEFLOQUINE], in assay [4], the lowest concentration to inhibit growth (MIC) was 10 µM.

For the compound `CC(C)(C)NCC(O)CSc1nc(-c2ccc(C(N)=O)s2)cs1` (stereo not drawn) [AROTINOLOL], in assay [5], the MIC came to 3.12 µM (≈ 1.16 µg/mL).

As for `COc1nc2ccc(Br)cc2cc1[C@@H](c1ccccc1)[C@@](O)(CCN(C)C)c1cccc2ccccc12` [BEDAQUILINE], in [6], inhibition of growth (MIC) required 0.015 µg/mL (≈ 0.027 µM). As for `C[C@H]1COC2(CCN(c3nc(=O)c4cc(C(F)(F)F)cc([N+](=O)[O-])c4s3)CC2)O1` [BTZ-043], the minimal inhibitory concentration (MIC) in assay [4] was 0.001 µg/mL.

For `C[C@]1(COc2ccc(N3CCC(Oc4ccc(OC(F)(F)F)cc4)CC3)cc2)Cn2cc([N+](=O)[O-])nc2O1` [DELAMANID], inhibition of growth in assay [7] (MIC) required 0.0005 µg/mL (≈ 0.000935 µM). In assay [5], `CC1=NN(c2ccc(C)c(C)c2)C(=O)/C1=N\Nc1cccc(-c2cccc(C(=O)O)c2)c1O` [ELTROMBOPAG] returned a minimal inhibitory concentration (MIC) of 6.25 µM (≈ 2.77 µg/mL). Regarding `NC[C@H]1OB(O)c2c(OCCO)ccc(Cl)c21` [GANFEBOROLE], the ED99 in assay [8] was determined as 0.4 mg/kg. Inhibition of growth in [2] (MIC) required 0.08 µM. In [4], `CN(C)[C@@H]1C(O)=C(C(=O)NCNCCCC[C@H](N)C(=O)O)C(=O)[C@@]2(O)C(O)=C3C(=O)c4c(O)cccc4[C@@](C)(O)[C@H]3C[C@@H]12` [LYMECYCLINE] returned a minimum inhibitory concentration (MIC) of 166 µM.

In assay [4], `O=c1nc(N2CCN(CC3CCCCC3)CC2)sc2c([N+](=O)[O-])cc(C(F)(F)F)cc12` [MACOZINONE] gave a minimal inhibitory concentration (MIC) of 0.00019 µg/mL. On the same count and under the same terms, in the case of `COc1c(N2C[C@@H]3CCCN[C@@H]3C2)c(F)cc2c(=O)c(C(=O)O)cn(C3CC3)c12` [MOXIFLOXACIN] it was 1.1 µM.

`CC(=O)Oc1ccccc1C(=O)Nc1ncc([N+](=O)[O-])s1` [NITAZOXANIDE]: the MIC in [4] turned out to be 33.2 µM. Consider `O=[N+]([O-])c1cn2c(n1)OC[C@@H](OCc1ccc(OC(F)(F)F)cc1)C2` [PRETOMANID], for which, in [3], inhibition of growth (MIC) required 0.015 µg/mL (≈ 0.0418 µM). As to `CC(C)=CCC/C(C)=C/CNCCNC1C2CC3CC(C2)CC1C3` (stereo not drawn) [SQ109], the MIC in assay [4] turned out to be 0.78 µg/mL. On the same count and under the same terms, next, `CC(=O)NC[C@H]1CN(c2ccc(N3CCSCC3)c(F)c2)C(=O)O1` [SUTEZOLID]: 0.062 µg/mL. Compound `COC(=O)NC[C@H]1CN(c2ccc(N3CC4(COC4)C3)c(F)c2)C(=O)O1` [TBI-223] displayed an IC50 in assay [9] of over 74 µM. For `CCc1nc2ccc(Cl)cn2c1C(=O)NCc1ccc(N2CCC(c3ccc(OC(F)(F)F)cc3)CC2)cc1` [TELACEBEC], it took 0.008 µg/mL to inhibit growth in [4] (MIC). On the same count and under the same terms, in the case of `CSc1ccc2c(c1)N(CCC1CCCCN1C)c1ccccc1S2` (stereo not drawn) [THIORIDAZINE] it was 19.6 µM. Regarding `COc1ccc(CCN(C)CCCC(C#N)(c2ccc(OC)c(OC)c2)C(C)C)cc1OC` (stereo not drawn) [VERAPAMIL], in assay [10], 512 µM (≈ 233 µg/mL) was the least that counted as inhibitory (MIC).

A word on the MIC: it is the smallest concentration in the dilution series that meets the test's criterion for growth inhibition. Low readings indicate inhibition by little substance, high ones a need for much substance. For orientation: MIC99 means an inhibitory concentration at the 99% level, which refers to growth in some studies and to a panel of isolates in others. Read a low MIC99 as higher susceptibility. The term IC50 denotes the midpoint of a concentration-inhibition curve. High values mean lower potency, low ones higher potency.

The record behind these values is ChEMBL document CHEMBL5126519, “Tuberculosis drug discovery: Progression and future interventions in the wake of emerging resistance” (Eur J Med Chem, 2022).
